According to PubChem BioAssay AID1963434 (Molecular Pharmacology Branch, DTP, NCI, 2024):

Tested on: 755483-174-R-J1-PDC complex spheroid growth, percent test/control
Experiment: Anticancer human tumor 755483-174-R-J1-PDC patient-derived rhabdomyosarcoma cell line growth inhibition [Asc]
Settings: for IC50: curve of first compound; for viability, T/C: stronger effect = lower value; active = viability on the fitted dose curve at most 10% of control; inactive = the rest
Method in brief: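 Concentration series start at each agent's clinical Cmax, or at 10 microM when none is established, and drop in half-log steps; agents are applied alone or together to complex spheroids built with HUVEC and hMSC.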

[1] = second compound 0.1 µM, first compound 0.00316 µM
[2] = second compound 0.1 µM, first compound 0.01 µM
[3] = second compound 0.1 µM, first compound 0.0316 µM
[4] = second compound 0.1 µM, first compound 0.1 µM
[5] = second compound 0.1 µM, first compound 0.316 µM
[6] = second compound 0.1 µM, first compound 1 µM
[7] = second compound 0.316 µM, first compound 0.00316 µM
[8] = second compound 0.316 µM, first compound 0.01 µM
[9] = second compound 0.316 µM, first compound 0.0316 µM
[10] = second compound 0.316 µM, first compound 0.1 µM
[11] = second compound 0.316 µM, first compound 0.316 µM
[12] = second compound 0.316 µM, first compound 1 µM
[13] = second compound 1 µM, first compound 0.00316 µM
[14] = second compound 1 µM, first compound 0.01 µM
[15] = second compound 1 µM, first compound 0.0316 µM
[16] = second compound 1 µM, first compound 0.1 µM
[17] = second compound 1 µM, first compound 0.316 µM
[18] = second compound 1 µM, first compound 1 µM
[19] = second compound 3.16 µM, first compound 0.00316 µM
[20] = second compound 3.16 µM, first compound 0.01 µM
[21] = second compound 3.16 µM, first compound 0.0316 µM
[22] = second compound 3.16 µM, first compound 0.1 µM
[23] = second compound 3.16 µM, first compound 0.316 µM
[24] = second compound 3.16 µM, first compound 1 µM
[25] = second compound 10 µM, first compound 0.00316 µM
[26] = second compound 10 µM, first compound 0.01 µM
[27] = second compound 10 µM, first compound 0.0316 µM
[28] = second compound 10 µM, first compound 0.1 µM
[29] = second compound 10 µM, first compound 0.316 µM
[30] = second compound 10 µM, first compound 1 µM
[31] = second compound 0.1 µM, first compound 0.000316 µM
[32] = second compound 0.1 µM, first compound 0.001 µM
[33] = second compound 0.316 µM, first compound 0.000316 µM
[34] = second compound 0.316 µM, first compound 0.001 µM
[35] = second compound 1 µM, first compound 0.000316 µM
[36] = second compound 1 µM, first compound 0.001 µM
[37] = second compound 3.16 µM, first compound 0.000316 µM
[38] = second compound 3.16 µM, first compound 0.001 µM
[39] = second compound 10 µM, first compound 0.000316 µM
[40] = second compound 10 µM, first compound 0.001 µM
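Note: spheroids exposed to compounds for seven days before readout.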

CCN1CCN(Cc2ccc(Nc3ncc(F)c(-c4cc(F)c5nc(C)n(C(C)C)c5c4)n3)nc2)CC1 + Cc1c(S(C)(=O)=O)c(-c2cc(F)cc(N3CCN(c4ccc(NS(=O)(=O)c5ccc(NC(CCN6CCC(C(=O)OCCCP(=O)(O)O)CC6)CSc6ccccc6)c(S(=O)(=O)C(F)(F)F)c5)cc4)CC3)c2)c(-c2ccc(Cl)cc2)n1C(C)C
< 3.16 nM: IC50 (second compound 0.316 µM) | IC50 (second compound 1 µM) | IC50 (second compound 3.16 µM) | IC50 (second compound 10 µM)
inactive: viability, T/C [1] 43% | viability, T/C [2] 62.1% | viability, T/C [3] 59.5% | viability, T/C [4] 68.5% | viability, T/C [5] 103% | viability, T/C [6] 104% | viability, T/C [7] 41% | viability, T/C [8] 48% | viability, T/C [9] 57.9% | viability, T/C [10] 59.3% | viability, T/C [11] 69% | viability, T/C [12] 81.7% | viability, T/C [13] 33.3% | viability, T/C [14] 45.3% | viability, T/C [15] 37.3% | viability, T/C [16] 50.2% | viability, T/C [17] 49.5% | viability, T/C [18] 49.7% | viability, T/C [19] 31.3% | viability, T/C [20] 66% | viability, T/C [21] 36.6% | viability, T/C [22] 45.4% | viability, T/C [23] 40.9% | viability, T/C [24] 58.5% | viability, T/C [25] 52.8% | viability, T/C [26] 41.9% | viability, T/C [27] 55% | viability, T/C [28] 54.4% | viability, T/C [29] 66.9% | viability, T/C [30] 70.9%
> 1000 nM: IC50 (second compound 0.1 µM)

Cn1ncnc1[C@H]1c2n[nH]c(=O)c3cc(F)cc(c23)N[C@@H]1c1ccc(F)cc1 + Cc1c(S(C)(=O)=O)c(-c2cc(F)cc(N3CCN(c4ccc(NS(=O)(=O)c5ccc(NC(CCN6CCC(C(=O)OCCCP(=O)(O)O)CC6)CSc6ccccc6)c(S(=O)(=O)C(F)(F)F)c5)cc4)CC3)c2)c(-c2ccc(Cl)cc2)n1C(C)C
inactive: viability, T/C [31] 50.8% | viability, T/C [32] 50.7% | viability, T/C [1] 49.3% | viability, T/C [2] 30.7% | viability, T/C [3] 28.1% | viability, T/C [4] 35% | viability, T/C [33] 46.2% | viability, T/C [34] 41% | viability, T/C [7] 34.7% | viability, T/C [8] 38.1% | viability, T/C [9] 25% | viability, T/C [10] 30.3% | viability, T/C [35] 38.2% | viability, T/C [36] 32.1% | viability, T/C [13] 35% | viability, T/C [14] 34% | viability, T/C [15] 23.7% | viability, T/C [16] 21.6% | viability, T/C [37] 38% | viability, T/C [38] 39.3% | viability, T/C [19] 24.7% | viability, T/C [20] 18.6% | viability, T/C [21] 19.2% | viability, T/C [22] 18.8% | viability, T/C [39] 32.6% | viability, T/C [40] 39.4% | viability, T/C [25] 32.9% | viability, T/C [26] 29.5% | viability, T/C [27] 16.7% | viability, T/C [28] 15.7%
1.85 nM: IC50 (second compound 0.1 µM)
< 0.316 nM: IC50 (second compound 0.316 µM) | IC50 (second compound 1 µM) | IC50 (second compound 3.16 µM) | IC50 (second compound 10 µM)

NC(=O)C(=Cn1cnc(-c2cc(C(F)(F)F)cc(C(F)(F)F)c2)n1)c1cncnc1 + Cc1c(S(C)(=O)=O)c(-c2cc(F)cc(N3CCN(c4ccc(NS(=O)(=O)c5ccc(NC(CCN6CCC(C(=O)OCCCP(=O)(O)O)CC6)CSc6ccccc6)c(S(=O)(=O)C(F)(F)F)c5)cc4)CC3)c2)c(-c2ccc(Cl)cc2)n1C(C)C
active: viability, T/C (second compound 0.1 µM, first compound 0.0949 µM) 16.4% | viability, T/C (second compound 0.1 µM, first compound 0.3 µM) 4.19% | viability, T/C (second compound 0.316 µM, first compound 0.03 µM) 7.11% | viability, T/C (second compound 0.316 µM, first compound 0.0949 µM) 2.26% | viability, T/C (second compound 0.316 µM, first compound 0.3 µM) 1.84% | viability, T/C (second compound 1 µM, first compound 0.03 µM) 7.14% | viability, T/C (second compound 1 µM, first compound 0.0949 µM) 3.61% | viability, T/C (second compound 1 µM, first compound 0.3 µM) 2.25% | viability, T/C (second compound 3.16 µM, first compound 0.03 µM) 5.04% | viability, T/C (second compound 3.16 µM, first compound 0.0949 µM) 3% | viability, T/C (second compound 3.16 µM, first compound 0.3 µM) 4.14% | viability, T/C (second compound 10 µM, first compound 0.03 µM) 3.72% | viability, T/C (second compound 10 µM, first compound 0.0949 µM) 1.94% | viability, T/C (second compound 10 µM, first compound 0.3 µM) 0.83%
< 0.949 nM: IC50 (second compound 0.1 µM) | IC50 (second compound 0.316 µM) | IC50 (second compound 1 µM) | IC50 (second compound 3.16 µM) | IC50 (second compound 10 µM)
inactive: viability, T/C (second compound 0.1 µM, first compound 0.000949 µM) 47.5% | viability, T/C (second compound 0.1 µM, first compound 0.003 µM) 36.2% | viability, T/C (second compound 0.1 µM, first compound 0.00949 µM) 22.7% | viability, T/C (second compound 0.1 µM, first compound 0.03 µM) 6.11% | viability, T/C (second compound 0.316 µM, first compound 0.000949 µM) 47% | viability, T/C (second compound 0.316 µM, first compound 0.003 µM) 31.2% | viability, T/C (second compound 0.316 µM, first compound 0.00949 µM) 12.9% | viability, T/C (second compound 1 µM, first compound 0.000949 µM) 34% | viability, T/C (second compound 1 µM, first compound 0.003 µM) 38.8% | viability, T/C (second compound 1 µM, first compound 0.00949 µM) 13.9% | viability, T/C (second compound 3.16 µM, first compound 0.000949 µM) 30.6% | viability, T/C (second compound 3.16 µM, first compound 0.003 µM) 25.2% | viability, T/C (second compound 3.16 µM, first compound 0.00949 µM) 14.1% | viability, T/C (second compound 10 µM, first compound 0.000949 µM) 24.6% | viability, T/C (second compound 10 µM, first compound 0.003 µM) 33.5% | viability, T/C (second compound 10 µM, first compound 0.00949 µM) 13.9%

NC1CCC(NC2CC2c2ccccc2)CC1 (stereo not given) + Cc1c(S(C)(=O)=O)c(-c2cc(F)cc(N3CCN(c4ccc(NS(=O)(=O)c5ccc(NC(CCN6CCC(C(=O)OCCCP(=O)(O)O)CC6)CSc6ccccc6)c(S(=O)(=O)C(F)(F)F)c5)cc4)CC3)c2)c(-c2ccc(Cl)cc2)n1C(C)C
inactive: viability, T/C [31] 36.7% | viability, T/C [32] 31.1% | viability, T/C [1] 37.3% | viability, T/C [2] 37.3% | viability, T/C [3] 33.7% | viability, T/C [4] 37% | viability, T/C [33] 39.7% | viability, T/C [34] 42.1% | viability, T/C [7] 31.7% | viability, T/C [8] 26.7% | viability, T/C [9] 35.9% | viability, T/C [10] 30.5% | viability, T/C [35] 27.6% | viability, T/C [36] 19.3% | viability, T/C [13] 31.9% | viability, T/C [14] 31.5% | viability, T/C [15] 31.1% | viability, T/C [16] 39.5% | viability, T/C [37] 25.2% | viability, T/C [38] 32.8% | viability, T/C [19] 22.7% | viability, T/C [20] 35.9% | viability, T/C [21] 24.9% | viability, T/C [22] 35.4% | viability, T/C [39] 20.4% | viability, T/C [40] 20.4% | viability, T/C [25] 21.2% | viability, T/C [26] 20.6% | viability, T/C [27] 24.5% | viability, T/C [28] 27.6%
< 0.316 nM: IC50 (second compound 0.1 µM) | IC50 (second compound 0.316 µM) | IC50 (second compound 1 µM) | IC50 (second compound 3.16 µM) | IC50 (second compound 10 µM)

O=C(c1ccc(F)c(F)c1Nc1ccc(I)cc1F)N1CC(O)([C@@H]2CCCCN2)C1 + Cc1c(S(C)(=O)=O)c(-c2cc(F)cc(N3CCN(c4ccc(NS(=O)(=O)c5ccc(NC(CCN6CCC(C(=O)OCCCP(=O)(O)O)CC6)CSc6ccccc6)c(S(=O)(=O)C(F)(F)F)c5)cc4)CC3)c2)c(-c2ccc(Cl)cc2)n1C(C)C
inactive: viability, T/C [1] 46.3% | viability, T/C [2] 71.5% | viability, T/C [3] 33.4% | viability, T/C [4] 45.1% | viability, T/C [5] 30.7% | viability, T/C [7] 41.9% | viability, T/C [8] 42% | viability, T/C [9] 44.8% | viability, T/C [10] 43.7% | viability, T/C [11] 22% | viability, T/C [13] 39.2% | viability, T/C [14] 44.3% | viability, T/C [15] 42.1% | viability, T/C [16] 36.9% | viability, T/C [17] 24.6% | viability, T/C [19] 38.9% | viability, T/C [20] 25% | viability, T/C [21] 26.6% | viability, T/C [22] 29.5% | viability, T/C [23] 15.3% | viability, T/C [25] 34.5% | viability, T/C [26] 42% | viability, T/C [27] 32.1% | viability, T/C [28] 29.1% | viability, T/C [29] 11.1%
active: viability, T/C [6] 4.92% | viability, T/C [12] 6.11% | viability, T/C [18] 4.55% | viability, T/C [24] 3.65% | viability, T/C [30] 2.13%
21.6 nM: IC50 (second compound 0.1 µM)
< 3.16 nM: IC50 (second compound 0.316 µM) | IC50 (second compound 1 µM) | IC50 (second compound 3.16 µM) | IC50 (second compound 10 µM)
